Molecular target: HPK1 (Homo sapiens (Human), UniProt Q92918)
Assay: HPK1 biochemical enzyme assay (microfluidic mobility shift)
Conditions: 1.5 nM HPK1, ATP 1 mM final, 60 min at RT, Caliper EZ Reader; read-out: HPK1 1000UMATP caliper IC50
Description: HPK1 biochemical enzyme assay: HPK1 enzyme inhibition was measured using a microfluidic mobility shift assay. Reactions were performed in a 384-well plate, containing 1.5 nM HPK1 (Invitrogen), in assay buffer (Cana Biosciences; pH 7.4). Test compounds were titrated in ten point curves (top final assay concentration 3 μM), and preincubated with enzyme/substrate mix for 30 min prior to initiation of the reaction by addition of ATP (1 mM final concentration) and substrate (1 μM final concentration; Carna Biosciences) diluted in assay buffer supplemented by MgCl2 (final assay concentration of 5 mM). Following 60 min incubation at RT, the reaction was terminated by addition of 60 μl/well termination buffer (Carna Biosciences) and signal determination using a Caliper EZ Reader (Perkin Elmer, UK).
Compounds having an activity designated as “A” provided an IC50≤100 nM; compounds having an activity designated as “B” provided an IC50>100 nM.

Sequence of HPK1 (Q92918 whole entry): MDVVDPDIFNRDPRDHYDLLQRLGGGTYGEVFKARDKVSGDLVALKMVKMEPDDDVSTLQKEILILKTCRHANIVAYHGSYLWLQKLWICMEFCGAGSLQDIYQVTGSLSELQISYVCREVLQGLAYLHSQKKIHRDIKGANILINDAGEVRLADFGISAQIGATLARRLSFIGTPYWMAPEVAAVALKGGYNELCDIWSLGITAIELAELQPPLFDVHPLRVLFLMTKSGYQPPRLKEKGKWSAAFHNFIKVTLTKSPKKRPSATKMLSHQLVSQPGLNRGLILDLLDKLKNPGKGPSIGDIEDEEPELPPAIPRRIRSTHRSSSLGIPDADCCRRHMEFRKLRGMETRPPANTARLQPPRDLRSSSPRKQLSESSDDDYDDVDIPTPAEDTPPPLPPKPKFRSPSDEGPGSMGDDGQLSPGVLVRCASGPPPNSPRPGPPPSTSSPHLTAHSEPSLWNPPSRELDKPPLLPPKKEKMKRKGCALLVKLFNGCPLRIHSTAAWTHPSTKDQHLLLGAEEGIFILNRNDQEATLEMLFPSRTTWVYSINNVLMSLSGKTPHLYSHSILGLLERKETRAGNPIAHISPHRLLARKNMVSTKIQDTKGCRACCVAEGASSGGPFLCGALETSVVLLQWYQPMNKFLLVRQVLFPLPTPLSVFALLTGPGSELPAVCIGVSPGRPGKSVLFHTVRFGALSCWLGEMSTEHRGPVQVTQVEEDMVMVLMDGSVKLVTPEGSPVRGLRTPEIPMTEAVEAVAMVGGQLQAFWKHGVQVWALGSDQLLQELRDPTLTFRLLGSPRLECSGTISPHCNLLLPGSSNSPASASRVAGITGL

Row | Molecule | IC50 [nM]
1 | CN1CCN(c2ccc(Nc3ncc(-c4ccncc4)c4c3C(=O)NC4)cc2)CC1 [Compound I-5, 4-((4-(4-methylpiperazin-1-yl)phenyl)amino)-7-(pyridin-4-yl)-1,2-dihydro-3H-pyrrolo[3,4-c]pyridin-3-one] | > 100
2 | COCC1(O)CCN(c2ccc(Nc3ncc(-c4cnc5cc(F)ccn45)c4c3C(=O)NC4)cc2CN(C)C)CC1 [Compound I-22, 4-((3-((dimethylamino)methyl)-4-(4-hydroxy-4-(methoxymethyl)piperidin-1-yl)phenyl)amino)-7-(7-fluoroimidazo[1,2-a]pyridin-3-yl)-1,2-dihydro-3H-pyrrolo[3,4-c]pyridin-3-one] | > 100
3 | CNC1CCN(c2ccc(Nc3ncc(-c4ccncc4)c4c3C(=O)NC4)cc2)CC1 [Compound I-23, 4-((4-(4-(methylamino)piperidin-1-yl)phenyl)amino)-7-(pyridin-4-yl)-1,2-dihydro-3H-pyrrolo[3,4-c]pyridin-3-one] | > 100
4 | CC(C)(O)C1CN(c2ccc(Nc3ncc(-c4ccncc4)c4c3C(=O)NC4)cc2)CCO1 (centres unmarked) [Compound I-27, 4-((4-(2-(2-hydroxypropan-2-yl)morpholino)phenyl)amino)-7-(pyridin-4-yl)-1,2-dihydro-3H-pyrrolo[3,4-c]pyridin-3-one] | > 100
5 | Cn1ccc2c(-c3cnc(Nc4ccc(N5CCC(O)CC5)cn4)c4c3CNC4=O)ccnc21 [Compound I-10, 4-((5-(4-hydroxypiperidin-1-yl)pyridin-2-yl)amino)-7-(1-methyl-1H-pyrrolo[2,3-b]pyridin-4-yl)-1,2-dihydro-3H-pyrrolo[3,4-c]pyridin-3-one] | > 100
6 | CC(C)(O)[C@H]1CN(c2ccc(Nc3ncc(-c4ccncc4)c4c3C(=O)NC4)cc2)CCO1 [Compound I-28, (R)-4-((4-(2-(2-hydroxypropan-2-yl)morpholino)phenyl)amino)-7-(pyridin-4-yl)-1,2-dihydro-3H-pyrrolo[3,4-c]pyridin-3-one] | > 100
7 | Cn1cncc1-c1cnc(Nc2ccc(N3CCC[C@@H](C(C)(C)O)C3)cc2)c2c1CNC2=O [Compound I-25, (R)-4-((4-(3-(2-hydroxypropan-2-yl)piperidin-1-yl)phenyl)amino)-7-(1-methyl-1H-imidazol-5-yl)-1,2-dihydro-3H-pyrrolo[3,4-c]pyridin-3-one] | > 100
8 | 4-((3-((dimethylamino)methyl)-4-(4-hydroxypiperidin-1-yl)phenyl)amino)-7-(1-methyl-1H-pyrrolo[2,3-b]pyridin-4-yl)-1,2-dihydro-3H-pyrrolo[3,4-c]pyridin-3-one [Compound I-21] | > 100
9 | CN(C)Cc1cc(Nc2ncc(-c3cnc4cc(F)ccn34)c3c2C(=O)NC3)ccc1[C@@H]1CCOC1 [Compound I-20, (S)-4-((3-((dimethylamino)methyl)-4-(tetrahydrofuran-3-yl)phenyl)amino)-7-(7-fluoroimidazo[1,2-a]pyridin-3-yl)-1,2-dihydro-3H-pyrrolo[3,4-c]pyridin-3-one] | > 100
10 | Cn1ccc2c(-c3cnc(Nc4ccc(S(C)(=O)=O)cc4)c4c3CNC4=O)ccnc21 [Compound I-9, 7-(1-methyl-1H-pyrrolo[2,3-b]pyridin-4-yl)-4-((4-(methylsulfonyl)phenyl)amino)-1,2-dihydro-3H-pyrrolo[3,4-c]pyridin-3-one] | > 100
11 | Cn1cncc1-c1cnc(Nc2ccc(N3CCNCC3)cc2)c2c1CNC2=O [Compound I-26, 7-(1-methyl-1H-imidazol-5-yl)-4-((4-(piperazin-1-yl)phenyl)amino)-1,2-dihydro-3H-pyrrolo[3,4-c]pyridin-3-one] | > 100
12 | CN(C)Cc1cc(Nc2ncc(-c3ccnc4c3ccn4C)c3c2C(=O)NC3)ccc1N1CCOCC1 [Compound I-7, 4-((3-((dimethylamino)methyl)-4-morpholinophenyl)amino)-7-(1-methyl-1H-pyrrolo[2,3-b]pyridin-4-yl)-1,2-dihydro-3H-pyrrolo[3,4-c]pyridin-3-one] | ≤ 100
13 | CC(C)(O)[C@@H]1CCCN(c2ccc(Nc3ncc(-c4cnc5cc(F)ccn45)c4c3C(=O)NC4)cc2)C1 (single isomer, unassigned) [Compound I-4] | > 100
14 | Cn1ccc2c(-c3cnc(Nc4ccc(N5CCC(O)CC5)nc4)c4c3CNC4=O)ccnc21 [Compound I-1, 4-((6-(4-hydroxypiperidin-1-yl)pyridin-3-yl)amino)-7-(1-methyl-1H-pyrrolo[2,3-b]pyridin-4-yl)-1,2-dihydro-3H-pyrrolo[3,4-c]pyridin-3-one] | > 100

Continued, values first:

Row | IC50 [nM] | Molecule
15 | ≤ 100 | CN(C)C[C@@H]1CN(c2ccc(Nc3ncc(-c4ccnc5c4ccn5C)c4c3C(=O)NC4)cc2)CCO1 (single isomer, unassigned) [Compound I-17]
16 | > 100 | O=C1NCc2c(-c3cnc4cc(F)ccn34)cnc(Nc3ccc(N4CCC(O)CC4)cc3)c21 [Compound I-14, 7-(7-fluoroimidazo[1,2-a]pyridin-3-yl)-4-((4-(4-hydroxypiperidin-1-yl)phenyl)amino)-1,2-dihydro-3H-pyrrolo[3,4-c]pyridin-3-one]
17 | > 100 | CN1CCN(c2ccc(Nc3ncc(-c4cnc5cc(F)ccn45)c4c3C(=O)NC4)cc2)CC1 [Compound I-15, 7-(7-fluoroimidazo[1,2-a]pyridin-3-yl)-4-((4-(4-methylpiperazin-1-yl)phenyl)amino)-1,2-dihydro-3H-pyrrolo[3,4-c]pyridin-3-one]
18 | ≤ 100 | Cn1ccc2c(-c3cnc(Nc4ccc(N5CCC[C@@H](C(C)(C)O)C5)cc4)c4c3CNC4=O)ccnc21 [Compound I-12, (R)-4-((4-(3-(2-hydroxypropan-2-yl)piperidin-1-yl)phenyl)amino)-7-(1-methyl-1H-pyrrolo[2,3-b]pyridin-4-yl)-1,2-dihydro-3H-pyrrolo[3,4-c]pyridin-3-one]
19 | ≤ 100 | Cn1ccc2c(-c3cnc(Nc4ccc(N5CCC[C@H](C(C)(C)O)C5)cc4)c4c3CNC4=O)ccnc21 [Compound I-11, (S)-4-((4-(3-(2-hydroxypropan-2-yl)piperidin-1-yl)phenyl)amino)-7-(1-methyl-1H-pyrrolo[2,3-b]pyridin-4-yl)-1,2-dihydro-3H-pyrrolo[3,4-c]pyridin-3-one]
20 | ≤ 100 | CN(C)C[C@H]1CN(c2ccc(Nc3ncc(-c4ccnc5c4ccn5C)c4c3C(=O)NC4)cc2)CCO1 (single isomer, unassigned) [Compound I-18]
21 | ≤ 100 | Cn1ccc2c(-c3cnc(Nc4ccc(N5CCC(O)CC5)cc4)c4c3CNC4=O)ccnc21 [Compound I-8, 4-((4-(4-hydroxypiperidin-1-yl)phenyl)amino)-7-(1-methyl-1H-pyrrolo[2,3-b]pyridin-4-yl)-1,2-dihydro-3H-pyrrolo[3,4-c]pyridin-3-one]
22 | ≤ 100 | Cc1ccc2c(-c3cnc(Nc4ccc(N5CCC(O)CC5)cc4)c4c3CNC4=O)cnn2c1 [Compound I-13, 4-((4-(4-hydroxypiperidin-1-yl)phenyl)amino)-7-(6-methylpyrazolo[1,5-a]pyridin-3-yl)-1,2-dihydro-3H-pyrrolo[3,4-c]pyridin-3-one]
23 | ≤ 100 | CN(C)Cc1cc(Nc2ncc(-c3cnc4cc(F)ccn34)c3c2C(=O)NC3)ccc1[C@H]1CCOC1 [Compound I-19, (R)-4-((3-((dimethylamino)methyl)-4-(tetrahydrofuran-3-yl)phenyl)amino)-7-(7-fluoroimidazo[1,2-a]pyridin-3-yl)-1,2-dihydro-3H-pyrrolo[3,4-c]pyridin-3-one]
24 | ≤ 100 | CN(C)Cc1cc(Nc2ncc(-c3cnc4cc(F)ccn34)c3c2C(=O)NC3)ccc1C1CCOCC1 [Compound I-6, 4-((3-((dimethylamino)methyl)-4-(tetrahydro-2H-pyran-4-yl)phenyl)amino)-7-(7-fluoroimidazo[1,2-a]pyridin-3-yl)-1,2-dihydro-3H-pyrrolo[3,4-c]pyridin-3-one]
25 | ≤ 100 | CC(C)(O)C1CN(c2ccc(Nc3ncc(-c4cnc5cc(F)ccn45)c4c3C(=O)NC4)cc2)CCO1 (centres unmarked) [Compound I-16, 7-(7-fluoroimidazo[1,2-a]pyridin-3-yl)-4-((4-(2-(2-hydroxypropan-2-yl)morpholino)phenyl)amino)-1,2-dihydro-3H-pyrrolo[3,4-c]pyridin-3-one]
26 | ≤ 100 | Cn1cncc1-c1cnc(Nc2ccc(N3CCC[C@H](C(C)(C)O)C3)cc2)c2c1CNC2=O [Compound I-24, (S)-4-((4-(3-(2-hydroxypropan-2-yl)piperidin-1-yl)phenyl)amino)-7-(1-methyl-1H-imidazol-5-yl)-1,2-dihydro-3H-pyrrolo[3,4-c]pyridin-3-one]
